What was measured:
SF-268 = test: NCI-60 anticancer screening (SRB); type: cell-based; details: Homo sapiens; SF-268, CNS cancer; one dose 10 μM; read-out: Growth Inhibition Percentage (GI %)
HS 578T = test: NCI-60 anticancer screening (SRB); type: cell-based; details: Homo sapiens; HS 578T, breast cancer; one dose 10 μM; read-out: Growth Inhibition Percentage (GI %)
EGFR^WT = EGFR^WT (Homo sapiens, UniProt P00533); test: EGFR kinase inhibitory assay (HTRF)
SF-295 = test: NCI-60 anticancer screening (SRB); type: cell-based; details: Homo sapiens; SF-295, CNS cancer; one dose 10 μM; read-out: Growth Inhibition Percentage (GI %)
UO-31 = test: NCI-60 anticancer screening (SRB); type: cell-based; details: Homo sapiens; UO-31, renal cancer; one dose 10 μM; read-out: Growth Inhibition Percentage (GI %)
HL-60(TB) = test: NCI-60 anticancer screening (SRB); type: cell-based; details: Homo sapiens, leukemia, one dose 10 μM, read-out: Growth Inhibition Percentage (GI %)
HCT-15 = test: NCI-60 anticancer screening (SRB); type: cell-based; details: Homo sapiens; HCT-15, colon cancer; one dose 10 μM; read-out: Growth Inhibition Percentage (GI %)
OVCAR-8 = test: NCI-60 anticancer screening (SRB); type: cell-based; details: Homo sapiens; OVCAR-8, ovarian cancer; one dose 10 μM; read-out: Growth Inhibition Percentage (GI %)
NCI 60 cancer cell lines = test: NCI-60 anticancer screening (SRB), whole panel; type: cell-based, human; details: mean across the NCI-60 panel; one dose 10 μM
MOLT-4 = test: NCI-60 anticancer screening (SRB); type: cell-based; details: Homo sapiens; MOLT-4, leukemia; one dose 10 μM; read-out: Growth Inhibition Percentage (GI %)
M14 = test: NCI-60 anticancer screening (SRB); type: cell-based; details: Homo sapiens; M14, melanoma; one dose 10 μM; read-out: Growth Inhibition Percentage (GI %)
EGFR^T790M = EGFR^T790M (Homo sapiens, UniProt P00533, T790M); test: biochemical
EGFR^T790M, sequence (P00533 25-1210 T790M): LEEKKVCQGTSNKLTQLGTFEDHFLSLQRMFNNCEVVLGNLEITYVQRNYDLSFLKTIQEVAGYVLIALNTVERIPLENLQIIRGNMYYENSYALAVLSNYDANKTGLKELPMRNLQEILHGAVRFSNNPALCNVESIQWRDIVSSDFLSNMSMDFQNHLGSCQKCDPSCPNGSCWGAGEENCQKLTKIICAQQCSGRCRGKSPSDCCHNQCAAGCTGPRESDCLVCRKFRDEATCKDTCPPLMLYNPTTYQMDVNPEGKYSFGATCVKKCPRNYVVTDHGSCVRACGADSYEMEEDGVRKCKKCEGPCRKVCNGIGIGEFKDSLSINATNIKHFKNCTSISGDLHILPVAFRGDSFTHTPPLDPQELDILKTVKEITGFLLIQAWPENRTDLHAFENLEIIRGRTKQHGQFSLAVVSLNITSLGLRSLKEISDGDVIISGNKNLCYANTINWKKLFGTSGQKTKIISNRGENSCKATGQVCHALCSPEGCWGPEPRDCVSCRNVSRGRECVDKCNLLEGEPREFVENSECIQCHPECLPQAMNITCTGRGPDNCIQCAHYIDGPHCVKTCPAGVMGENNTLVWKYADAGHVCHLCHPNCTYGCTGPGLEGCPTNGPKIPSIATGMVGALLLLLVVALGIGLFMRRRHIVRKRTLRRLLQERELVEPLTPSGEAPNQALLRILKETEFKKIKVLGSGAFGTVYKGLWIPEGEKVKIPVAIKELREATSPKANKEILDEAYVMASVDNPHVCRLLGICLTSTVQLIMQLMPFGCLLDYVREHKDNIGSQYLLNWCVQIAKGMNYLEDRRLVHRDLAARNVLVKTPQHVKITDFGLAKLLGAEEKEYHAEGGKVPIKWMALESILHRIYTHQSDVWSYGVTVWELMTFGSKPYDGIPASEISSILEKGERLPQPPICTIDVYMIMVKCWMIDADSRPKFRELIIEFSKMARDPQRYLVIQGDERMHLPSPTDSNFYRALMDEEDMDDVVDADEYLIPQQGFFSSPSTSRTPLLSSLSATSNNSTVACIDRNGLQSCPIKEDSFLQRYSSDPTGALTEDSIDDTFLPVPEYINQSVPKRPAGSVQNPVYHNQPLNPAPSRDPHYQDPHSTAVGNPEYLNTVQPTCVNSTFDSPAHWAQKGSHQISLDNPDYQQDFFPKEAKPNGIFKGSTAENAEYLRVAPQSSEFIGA

UACC-62 = test: NCI-60 anticancer screening (SRB); type: cell-based; details: Homo sapiens; UACC-62, melanoma; one dose 10 μM; read-out: Growth Inhibition Percentage (GI %)
IGROV1 = test: NCI-60 anticancer screening (SRB); type: cell-based; details: Homo sapiens, IGROV-1; IGROV1, ovarian cancer; one dose 10 μM; read-out: Growth Inhibition Percentage (GI %)
NCI/ADR-RES = test: NCI-60 anticancer screening (SRB); type: cell-based; details: Homo sapiens, ovarian cancer, one dose 10 μM, read-out: Growth Inhibition Percentage (GI %)
UACC-257 = test: NCI-60 anticancer screening (SRB); type: cell-based; details: Homo sapiens; UACC-257, melanoma; one dose 10 μM; read-out: Growth Inhibition Percentage (GI %)
HT29 = test: NCI-60 anticancer screening (SRB); type: cell-based; details: Homo sapiens, HT-29; HT29, colon cancer; one dose 10 μM; read-out: Growth Inhibition Percentage (GI %)
MCF7 = test: NCI-60 anticancer screening (SRB); type: cell-based; details: Homo sapiens; MCF7, breast cancer; one dose 10 μM; read-out: Growth Inhibition Percentage (GI %)
PC-3 = test: NCI-60 anticancer screening (SRB); type: cell-based; details: Homo sapiens; PC-3, prostate cancer; one dose 10 μM; read-out: Growth Inhibition Percentage (GI %)
DU-145 = test: NCI-60 anticancer screening (SRB); type: cell-based; details: Homo sapiens; DU-145, prostate cancer; one dose 10 μM; read-out: Growth Inhibition Percentage (GI %)
MDA-MB-435 = test: NCI-60 anticancer screening (SRB); type: cell-based; details: Homo sapiens; MDA-MB-435, melanoma; one dose 10 μM; read-out: Growth Inhibition Percentage (GI %)
NCI-H522 = test: NCI-60 anticancer screening (SRB); type: cell-based; details: Homo sapiens; NCI-H522, NSC lung cancer; one dose 10 μM; read-out: Growth Inhibition Percentage (GI %)
SF-539 = test: NCI-60 anticancer screening (SRB); type: cell-based; details: Homo sapiens; SF-539, CNS cancer; one dose 10 μM; read-out: Growth Inhibition Percentage (GI %)
EGFR^L858R = EGFR^L858R (Homo sapiens, UniProt P00533, L858R); test: biochemical
EGFR^L858R, sequence (P00533 25-1210 L858R): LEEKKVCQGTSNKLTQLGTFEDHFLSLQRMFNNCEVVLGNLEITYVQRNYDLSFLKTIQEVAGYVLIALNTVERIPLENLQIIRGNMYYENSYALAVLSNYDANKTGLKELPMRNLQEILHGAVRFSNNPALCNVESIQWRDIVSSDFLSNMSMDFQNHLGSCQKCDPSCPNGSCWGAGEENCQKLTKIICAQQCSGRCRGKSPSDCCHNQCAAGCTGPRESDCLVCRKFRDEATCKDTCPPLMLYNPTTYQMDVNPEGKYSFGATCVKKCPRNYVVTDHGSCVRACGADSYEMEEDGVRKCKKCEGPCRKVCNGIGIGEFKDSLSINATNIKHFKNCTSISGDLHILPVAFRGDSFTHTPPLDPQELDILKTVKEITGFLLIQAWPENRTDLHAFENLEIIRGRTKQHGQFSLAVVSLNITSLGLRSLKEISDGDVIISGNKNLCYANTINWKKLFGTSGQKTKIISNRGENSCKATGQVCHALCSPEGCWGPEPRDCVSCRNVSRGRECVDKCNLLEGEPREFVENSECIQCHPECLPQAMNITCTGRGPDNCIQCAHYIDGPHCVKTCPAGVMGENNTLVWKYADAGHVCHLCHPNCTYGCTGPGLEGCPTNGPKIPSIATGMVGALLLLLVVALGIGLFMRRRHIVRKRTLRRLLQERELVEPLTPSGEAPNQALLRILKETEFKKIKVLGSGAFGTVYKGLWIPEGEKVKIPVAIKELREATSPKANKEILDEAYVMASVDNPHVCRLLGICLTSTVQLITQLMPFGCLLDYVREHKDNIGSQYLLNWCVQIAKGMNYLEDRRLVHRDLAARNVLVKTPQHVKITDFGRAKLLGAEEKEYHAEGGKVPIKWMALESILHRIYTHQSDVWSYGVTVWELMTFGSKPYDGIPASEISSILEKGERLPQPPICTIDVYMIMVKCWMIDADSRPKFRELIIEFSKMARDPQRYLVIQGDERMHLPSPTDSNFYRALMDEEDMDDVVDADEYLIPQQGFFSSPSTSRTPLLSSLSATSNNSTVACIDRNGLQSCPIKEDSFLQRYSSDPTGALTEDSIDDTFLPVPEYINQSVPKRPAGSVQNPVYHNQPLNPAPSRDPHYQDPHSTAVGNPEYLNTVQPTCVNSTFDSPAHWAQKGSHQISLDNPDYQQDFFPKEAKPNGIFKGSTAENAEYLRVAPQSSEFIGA

RXF 393 = test: NCI-60 anticancer screening (SRB); type: cell-based; details: Homo sapiens; RXF 393, renal cancer; one dose 10 μM; read-out: Growth Inhibition Percentage (GI %)
K-562 = test: NCI-60 anticancer screening (SRB); type: cell-based; details: Homo sapiens, K562; K-562, leukemia; one dose 10 μM; read-out: Growth Inhibition Percentage (GI %)
NCI-H460 = test: NCI-60 anticancer screening (SRB); type: cell-based; details: Homo sapiens; NCI-H460, NSC lung cancer; one dose 10 μM; read-out: Growth Inhibition Percentage (GI %)
COLO 205 = test: NCI-60 anticancer screening (SRB); type: cell-based; details: Homo sapiens; COLO 205, colon cancer; one dose 10 μM; read-out: Growth Inhibition Percentage (GI %)
HCT-116 = test: NCI-60 anticancer screening (SRB); type: cell-based; details: Homo sapiens; HCT-116, colon cancer; one dose 10 μM; read-out: Growth Inhibition Percentage (GI %)
HOP-62 = test: NCI-60 anticancer screening (SRB); type: cell-based; details: Homo sapiens; HOP-62, NSC lung cancer; one dose 10 μM; read-out: Growth Inhibition Percentage (GI %)

EGFR^WT, sequence (P00533 25-1210): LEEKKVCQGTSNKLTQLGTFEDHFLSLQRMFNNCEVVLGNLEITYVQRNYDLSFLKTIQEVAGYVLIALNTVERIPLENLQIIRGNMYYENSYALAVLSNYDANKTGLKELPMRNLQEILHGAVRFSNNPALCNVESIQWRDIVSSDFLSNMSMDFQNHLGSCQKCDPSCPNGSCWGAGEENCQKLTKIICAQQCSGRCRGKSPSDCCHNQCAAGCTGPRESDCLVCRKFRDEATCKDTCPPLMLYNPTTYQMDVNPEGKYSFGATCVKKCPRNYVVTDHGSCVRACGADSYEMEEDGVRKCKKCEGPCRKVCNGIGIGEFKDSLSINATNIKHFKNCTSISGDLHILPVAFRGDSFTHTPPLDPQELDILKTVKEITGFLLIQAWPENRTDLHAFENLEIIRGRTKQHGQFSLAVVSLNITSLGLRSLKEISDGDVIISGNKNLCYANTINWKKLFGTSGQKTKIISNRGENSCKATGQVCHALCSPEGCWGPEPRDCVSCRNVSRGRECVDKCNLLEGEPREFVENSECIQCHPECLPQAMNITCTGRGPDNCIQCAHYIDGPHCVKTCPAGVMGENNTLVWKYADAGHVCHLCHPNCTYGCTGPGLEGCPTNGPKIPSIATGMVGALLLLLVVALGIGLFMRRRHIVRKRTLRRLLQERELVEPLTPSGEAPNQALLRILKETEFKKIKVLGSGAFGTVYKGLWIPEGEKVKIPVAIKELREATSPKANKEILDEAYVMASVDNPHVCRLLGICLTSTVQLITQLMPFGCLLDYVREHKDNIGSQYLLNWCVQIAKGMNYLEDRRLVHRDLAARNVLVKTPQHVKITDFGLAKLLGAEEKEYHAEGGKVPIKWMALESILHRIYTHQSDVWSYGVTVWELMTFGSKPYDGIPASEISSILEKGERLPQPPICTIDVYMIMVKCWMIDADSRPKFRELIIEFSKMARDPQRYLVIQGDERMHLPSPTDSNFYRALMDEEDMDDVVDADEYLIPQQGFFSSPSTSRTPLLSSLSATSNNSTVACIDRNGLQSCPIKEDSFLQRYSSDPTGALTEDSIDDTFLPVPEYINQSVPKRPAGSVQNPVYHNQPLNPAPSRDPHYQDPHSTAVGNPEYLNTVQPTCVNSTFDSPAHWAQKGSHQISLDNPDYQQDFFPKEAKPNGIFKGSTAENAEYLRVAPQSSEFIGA

| Structure (SMILES) | inhibition at 10 µM (SF-268) [%] | inhibition at 10 µM (HS 578T) [%] | IC50 (EGFR^WT) [nM] | inhibition at 10 µM (SF-295) [%] | inhibition at 10 µM (UO-31) [%] | inhibition at 10 µM (HL-60(TB)) [%] | inhibition at 10 µM (HCT-15) [%] | inhibition at 10 µM (OVCAR-8) [%] | GI % mean (NCI 60 cancer cell lines) [%] | inhibition at 10 µM (MOLT-4) [%] | inhibition at 10 µM (M14) [%] | IC50 (EGFR^T790M) [nM] | inhibition at 10 µM (UACC-62) [%] | inhibition at 10 µM (IGROV1) [%] | inhibition at 10 µM (NCI/ADR-RES) [%] | inhibition at 10 µM (UACC-257) [%] | inhibition at 10 µM (HT29) [%] | inhibition at 10 µM (MCF7) [%] | inhibition at 10 µM (PC-3) [%] | inhibition at 10 µM (DU-145) [%] | also measured |
| --- | --- | --- | --- | --- | --- | --- | --- | --- | --- | --- | --- | --- | --- | --- | --- | --- | --- | --- | --- | --- | --- |
| CCOC(=O)C1=C(N)N(c2ccc(C)cc2)C2=C(C(=O)CC(C)(C)C2)C1c1ccccc1Br (racemic) [6e, (±)-Ethyl 2-amino-4–(2-bromophenyl)-7,7-dimethyl-1–(4-methylphenyl)-5-oxo-1,4,5,6,7,8-hexahydroquinoline-3-carboxylate] | < 10 | < 10 | 176 ± 70 | < 10 | 24 | 111 | 42 | < 10 | 22 | 71 | 17 | 480 ± 3 | 28 | < 10 | < 10 | 16 | 37 | 43 | 68 | < 10 | inhibition at 10 µM (MDA-MB-435): 17%; melting point: 236 to 238 °C; inhibition at 10 µM (NCI-H522): 32%; inhibition at 10 µM (SF-539): < 10%; IC50 (EGFR^L858R): 370 ± 4 nM; inhibition at 10 µM (RXF 393): 14%; inhibition at 10 µM (K-562): 50%; inhibition at 10 µM (NCI-H460): 46%; inhibition at 10 µM (COLO 205): 37%; inhibition at 10 µM (HCT-116): 60%; inhibition at 10 µM (HOP-62): < 10% |
| CCOC(=O)C1=C(N)N(c2ccc(Cl)cc2)C2=C(C(=O)CC(C)(C)C2)C1c1ccccc1Cl (racemic) [6c, (±)-Ethyl 2-amino-4–(2-chlorophenyl)-1–(4-chlorophenyl)-7,7-dimethyl-5-oxo-1,4,5,6,7,8-hexahydroquinoline-3-carboxylate] | 23 | < 10 | 277 ± 120 | 27 | 51 | 75 | 62 | 30 | 34 | < 10 | 28 | 530 ± 4 | 45 | < 10 | 24 | 50 | 60 | 58 | 76 | < 10 | inhibition at 10 µM (MDA-MB-435): 29%; melting point: 179 to 181 °C; inhibition at 10 µM (NCI-H522): 63%; inhibition at 10 µM (SF-539): < 10%; IC50 (EGFR^L858R): 500 ± 4 nM; inhibition at 10 µM (RXF 393): < 10%; inhibition at 10 µM (K-562): < 10%; inhibition at 10 µM (NCI-H460): 58%; inhibition at 10 µM (COLO 205): 62%; inhibition at 10 µM (HCT-116): 66%; inhibition at 10 µM (HOP-62): 19% |
| CCOC(=O)C1=C(N)N(c2ccccc2)C2=C(C(=O)CC(C)(C)C2)C1c1cccc(Cl)c1Cl (racemic) [10a, (±)-Ethyl 2-amino-4–(2,3-dichlorophenyl)-7,7-dimethyl-5-oxo-1-phenyl-1,4,5,6,7,8-hexahydroquinoline-3-carboxylate] | 34 | < 10 | 145 ± 30 | 46 | 25 | 54 | 34 | 41 | 35 | 60 | 12 | 532 ± 4 | 44 | 16 | 49 | 15 | 27 | 40 | 65 | 19 | inhibition at 10 µM (MDA-MB-435): 13%; melting point: 235 to 237 °C; inhibition at 10 µM (NCI-H522): 25%; inhibition at 10 µM (SF-539): 67%; IC50 (EGFR^L858R): 490 ± 3 nM; inhibition at 10 µM (RXF 393): 47%; inhibition at 10 µM (K-562): 40%; inhibition at 10 µM (NCI-H460): 39%; inhibition at 10 µM (COLO 205): 19%; inhibition at 10 µM (HCT-116): 60%; inhibition at 10 µM (HOP-62): 59% |

Source: PMC10408569, “Recruitment of hexahydroquinoline as anticancer scaffold targeting inhibition of wild and mutants EGFR (EGFR^WT, EGFR^T790M, and EGFR^L858R)” (Journal of Enzyme Inhibition and Medicinal Chemistry, 2023)
